Reference: patent publication US20230212549A1, “COMPOUNDS COMPRISING A […] LIGAND AND USE THEREOF” (priority 2021, published 2023)
Numbered stars: 1 amine (or outer) side, 2 acyl side, 3 side chain; on linkers, the order of the positions; unused ones are H or OH. Bridge positions count the residues as written; N and C are the ends. Square brackets hold non-standard residues; d marks the D form. Peptide text beside a SMILES is read from it. * marks the point of attachment. ξ: configuration not given here. TBMB(SCH2CH2NH-DOTA) = O=C(O)CN1CCN(CC(=O)O)CCN(CC(=O)NCCSCc2cc(C[*:1])cc(C[*:2])c2)CCN(CC(=O)O)CC1; X7 = O=C(CCP(=O)(O)CN1CCN(CP(=O)(O)CO)CCN(CP(=O)(O)CO)CC1)NCCSCc1cc(C[*:1])cc(C[*:2])c1; X10 = O=C(O)CN1CCN(CC(=O)O)CCN(C(CCC(=O)NCCCOCCOCCOCCCN*)C(=O)O)CC1; DOTA = O=C(O)CN1CCN(CC(=O)O)CCN(CC(=O)*)CCN(CC(=O)O)CC1; Pro(trans-4-Ph) = O=C(O)[C@@H]1C[C@@H](c2ccccc2)CN1; Bip = N[C@@H](Cc1ccc(-c2ccccc2)cc1)C(=O)O; Pro(4S-NH2) = N[C@@H]1CN[C@H](C(=O)O)C1; mXylylene = c1cc(C[*:1])cc(C[*:2])c1; Pentanesulfonyl = CCCCCS(=O)(=O)*; NMeF = CN[C@@H](Cc1ccccc1)C(=O)O; Pen = CC(C)(S)[C@H](N)C(=O)O; Suc = O=C(CCC(=O)[*:2])[*:1]; Nle = CCCC[C@H](N)C(=O)O; Hexanoyl = CCCCCC(=O)*; Inp = O=C(O)C1CCNCC1; ξC = NC(CS)C(=O)O; Sar = CNCC(=O)O

How the values were obtained:
[1] = biological target: T1, FAP-expressing human WI-38 fibroblasts (Homo sapiens, UniProt Q12884); test: Competitive FACS binding assay
T1 construct: FAP-expressing human WI-38 fibroblasts (ECACC) were cultured in EMEM; host or cells: WI-38 human fibroblasts
Procedure: Cells were analyzed in an Attune NxT flow cytometer. […] […].
Cells were analyzed in an Attune NxT flow cytometer. […]

[2] = biological target: Human recombinant FAP (Homo sapiens, UniProt Q12884); test: FRET-based FAP protease activity assay; format: biochemical; parameters: purchased R&D systems 3715-SE
[3] = pIC50 Category (Activity), FRET-peptide substrate, 37° C.
[4] = pIC50 Category (Activity), FRET-based FAP protease activity assay, recombinant human FAP, 37° C.

T1 sequence (Q12884 whole entry): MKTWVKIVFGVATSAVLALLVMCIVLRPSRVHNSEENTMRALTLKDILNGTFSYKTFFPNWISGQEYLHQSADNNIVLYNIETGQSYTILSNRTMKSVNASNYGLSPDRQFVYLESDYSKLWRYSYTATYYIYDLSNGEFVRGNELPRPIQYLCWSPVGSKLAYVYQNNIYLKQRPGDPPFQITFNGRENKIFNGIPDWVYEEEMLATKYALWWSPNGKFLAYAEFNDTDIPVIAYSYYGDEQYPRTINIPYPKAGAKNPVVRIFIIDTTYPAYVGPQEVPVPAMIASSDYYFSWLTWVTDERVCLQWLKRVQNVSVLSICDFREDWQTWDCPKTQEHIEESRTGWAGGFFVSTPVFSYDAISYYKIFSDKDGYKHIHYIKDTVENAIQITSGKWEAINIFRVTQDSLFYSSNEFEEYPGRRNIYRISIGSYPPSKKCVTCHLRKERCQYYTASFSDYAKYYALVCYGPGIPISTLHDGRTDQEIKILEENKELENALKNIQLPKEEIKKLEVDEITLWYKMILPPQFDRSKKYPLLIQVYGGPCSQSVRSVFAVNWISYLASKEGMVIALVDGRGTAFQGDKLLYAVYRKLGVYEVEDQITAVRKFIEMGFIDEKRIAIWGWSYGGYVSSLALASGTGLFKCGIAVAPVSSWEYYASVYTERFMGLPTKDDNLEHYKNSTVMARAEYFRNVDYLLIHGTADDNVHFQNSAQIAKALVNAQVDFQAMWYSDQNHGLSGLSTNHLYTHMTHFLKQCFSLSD
Chain of Human recombinant FAP (Q12884 whole entry): as above

IC50 [1] [nM] | IC50 [2, 3] [nM] | IC50 [2, 4] [nM] | Compound | other results
< 10 | 10 to 79.4 |  | COCCCC(=O)N[C@H]1CSCc2cc(CSCCNC(=O)CN3CCN(CC(=O)O)CCN(CC(=O)O)CCN(CC(=O)O)CC3)cc(c2)CSC[C@@H](C(=O)O)NC(=O)[C@H](Cc2ccccc2)NC(=O)[C@H](CCC(N)=O)NC(=O)[C@H]([C@@H](C)O)NC(=O)[C@@H]2CCCN2C(=O)[C@@H]2CCCN2C1=O [3BP-3937, MeOBut-[Cys(tMeBn(DOTA-AET))-Pro-Pro-Thr-Gln-Phe-Cys]-OH] | 
100 to 794 | 100 to 794 |  | C[C@@H](O)[C@@H]1NC(=O)[C@@H]2CCCN2C(=O)[C@@H]2CCCN2C(=O)[C@@H](NC(=O)C2CCCCC2)CSCc2cc(CSCCNC(=O)CN3CCN(CC(=O)O)CCN(CC(=O)O)CCN(CC(=O)O)CC3)cc(c2)CSC[C@@H](C(=O)O)NC(=O)[C@H](Cc2ccccc2)NC(=O)[C@H](CCC(N)=O)NC1=O [3BP-3908, Chex-[Cys(tMeBn(DOTA-AET))-Pro-Pro-Thr-Gln-Phe-Cys]-OH] | 
100 to 794 |  | 100 to 794 | C[C@@H](O)[C@@H]1NC(=O)[C@@H]2CCCN2C(=O)[C@@H]2CCCN2C(=O)[C@@H](NC(=O)C2CCN(C(=O)CN3CCN(CC(=O)O)CCN(CC(=O)O)CCN(CC(=O)O)CC3)CC2)CSCc2cccc(c2)CSC[C@@H](C(=O)N[C@@H](CC(=O)O)C(=O)N[C@@H](Cc2c[nH]cn2)C(=O)N(C)[C@@H](Cc2ccccc2)C(=O)N[C@@H](CCCNC(=N)N)C(=O)N[C@@H](CC(=O)O)C(N)=O)NC(=O)[C@H](Cc2ccccc2)NC(=O)[C@H](CCC(=O)O)NC1=O [3BP-3265, DOTA-Inp-[Cys(3MeBn)-Pro-Pro-Thr-Glu-Phe-Cys]-Asp-His-Nmf-Arg-Asp-NH2] ({DOTA-Inp}-CPPTEFCDH[NMeF]RD-NH2; linker 1-7 via mXylylene) | 
< 10 |  | < 10 | CCCCCC(=O)N[C@H]1CSCc2cccc(c2)CSC[C@@H](C(=O)N[C@@H](CC(=O)O)C(=O)N[C@@H](CCCNC(=N)N)C(N)=O)NC(=O)[C@H](Cc2ccccc2)NC(=O)[C@H](CCC(=O)O)NC(=O)[C@H]([C@@H](C)O)NC(=O)[C@@H]2CCCN2C(=O)[C@@H]2CCCN2C1=O [3BP-3299, Hex-[Cys(3MeBn)-Pro-Pro-Thr-Glu-Phe-Cys]-Asp-Arg-NH2] (Hexanoyl-CPPTEFCDR-NH2; linker 1-7 via mXylylene) | 
> 1000 |  | > 1000 | CCCCCC(=O)N[C@H]1CSCc2cccc(c2)CSC[C@@H](C(N)=O)NC(=O)[C@H](Cc2ccc(-c3ccccc3)cc2)NC(=O)[C@H](CCC(=O)O)NC(=O)[C@H]([C@@H](C)O)NC(=O)[C@@H]2CCCN2C(=O)[C@@H]2CCCN2C1=O [3BP-3363, Hex-[Cys(3MeBn)-Pro-Pro-Thr-Glu-Bip-Cys]-NH2] (Hexanoyl-CPPTE[Bip]C-NH2; linker 1-7 via mXylylene) | 
10 to 79.4 |  |  | CCCC[C@H](NC(=O)CCC(=O)NCCCOCCOCCOCCCNC(=O)CCC(C(=O)O)N1CCN(CC(=O)O)CCN(CC(=O)O)CC1)C(=O)N[C@H]1CSCc2cccc(c2)CSCC(C(N)=O)NC(=O)[C@H](Cc2ccccc2)NC(=O)[C@H](CCC(=O)O)NC(=O)[C@H]([C@@H](C)O)NC(=O)[C@@H]2CCCN2C(=O)[C@@H]2CCCN2C1=O (stereo partly drawn) [3BP-4743, NODAGA-Ttds-Nle-[Cys(3MeBn)-Pro-Pro-Thr-Glu-Phe-Cys]-NH2] ({X10-Suc}-[Nle]CPPTEF[ξC]-NH2; linker 2-8 via mXylylene) | IC50 ([2]; pIC50 Category (activity), Recombinant human FAP): 10 to 79.4 nM
< 10 |  | 10 to 79.4 | CCCCCS(=O)(=O)N[C@H]1CSCc2cc(CSCCNC(=O)CN3CCN(CC(=O)O)CCN(CC(=O)O)CCN(CC(=O)O)CC3)cc(c2)CSC[C@@H](C(=O)O)NC(=O)[C@H](Cc2ccccc2)NC(=O)[C@H](CCC(=O)O)NC(=O)[C@H]([C@@H](C)O)NC(=O)[C@@H]2CCCN2C(=O)[C@@H]2CCCN2C1=O [3BP-3691, Pentyl-SO2-[Cys(tMeBn(DOTA-AET))-Pro-Pro-Thr-Glu-Phe-Cys]-OH] (Pentanesulfonyl-CPPTEFC-OH; linker 1-7 via TBMB(SCH2CH2NH-DOTA)) | 
10 to 79.4 |  | 10 to 79.4 | CSCC[C@@H](NC(C)=O)C(=O)N[C@H]1CSCc2cc(CSCCNC(=O)CN3CCN(CC(=O)O)CCN(CC(=O)O)CCN(CC(=O)O)CC3)cc(c2)CSC[C@@H](C(=O)O)NC(=O)[C@H](Cc2ccccc2)NC(=O)[C@H](CCC(N)=O)NC(=O)[C@H]([C@@H](C)O)NC(=O)[C@@H]2CCCN2C(=O)[C@@H]2CCCN2C1=O [3BP-3682, Ac-met-[Cys(tMeBn(DOTA-AET))-Pro-Pro-Thr-Gln-Phe-Cys]-OH] | 
10 to 79.4 | 10 to 79.4 |  | C#CCCCC(=O)N[C@H]1CSCc2cc(CSCCNC(=O)CN3CCN(CC(=O)O)CCN(CC(=O)O)CCN(CC(=O)O)CC3)cc(c2)CSC[C@@H](C(=O)O)NC(=O)[C@H](Cc2ccccc2)NC(=O)[C@H](CCC(N)=O)NC(=O)[C@H]([C@@H](C)O)NC(=O)[C@@H]2CCCN2C(=O)[C@@H]2CCCN2C1=O [3BP-3913, Hyn-[Cys(tMeBn(DOTA-AET))-Pro-Pro-Thr-Gln-Phe-Cys]-OH] | 
10 to 79.4 | 10 to 79.4 |  | CCCC[C@H](NC(=O)CCC(=O)NCCCOCCOCCOCCCNC(=O)CN1CCN(CC(=O)O)CCN(CC(=O)O)CCN(CC(=O)O)CC1)C(=O)N[C@H]1CSCc2cc(CSCCNC(=O)CN3CCN(CC(=O)O)CCN(CC(=O)O)CCN(CC(=O)O)CC3)cc(c2)CSC[C@@H](C(=O)O)NC(=O)[C@H](Cc2ccccc2)NC(=O)[C@H](CCC(N)=O)NC(=O)[C@H]([C@@H](C)O)NC(=O)[C@@H]2CCCN2C(=O)[C@@H]2CCCN2C1=O [3BP-4386, DOTA-Ttds-Nle-[Cys(tMeBn(DOTA-AET))-Pro-Pro-Thr-Gln-Phe-Cys]-OH] | 
10 to 79.4 | 10 to 79.4 |  | C[C@@H](O)[C@@H]1NC(=O)[C@@H]2CCCN2C(=O)[C@@H]2CCCN2C(=O)[C@@H](NC(=O)NC2CCCC2)CSCc2cc(CSCCNC(=O)CN3CCN(CC(=O)O)CCN(CC(=O)O)CCN(CC(=O)O)CC3)cc(c2)CSC[C@@H](C(=O)O)NC(=O)[C@H](Cc2ccccc2)NC(=O)[C@H](CCC(N)=O)NC1=O [3BP-3917, Cpentyl-CAyl-[Cys(tMeBn(DOTA-AET))-Pro-Pro-Thr-Gln-Phe-Cys]-OH] | 

Second part, the compound before the results:

Compound | IC50 [1] [nM] | IC50 [2, 3] [nM] | IC50 [2, 4] [nM] | other results
CCCCCC(=O)N[C@H]1CSCc2cc(CSCCNC(=O)CCOCCOCCOCCOCCOCCOCCNC(=O)CCc3ccc(O)c(CN(CCN(CC(=O)O)Cc4cc(CCC(=O)O)ccc4O)CC(=O)O)c3)cc(c2)CSC[C@@H](C(=O)O)NC(=O)[C@H](Cc2ccccc2)NC(=O)[C@H](CCC(N)=O)NC(=O)[C@H]([C@@H](C)O)NC(=O)[C@@H]2CCCN2C(=O)[C@@H]2CCCN2C1=O [3BP-4383, Hex-[Cys(tMeBn(HBED-PEG6-AET))-Pro-Pro-Thr-Gln-Phe-Cys]-OH] | 10 to 79.4 | 10 to 79.4 |  | 
CCCCCC(=O)N[C@H]1CSCc2cccc(c2)CSC(C)(C)[C@@H](C(N)=O)NC(=O)[C@H](Cc2ccccc2)NC(=O)[C@H](CCC(=O)O)NC(=O)[C@H]([C@@H](C)O)NC(=O)[C@@H]2CCCN2C(=O)[C@@H]2CCCN2C1=O [3BP-3351, Hex-[Cys(3MeBn)-Pro-Pro-Thr-Glu-Phe-Pen]-NH2] (Hexanoyl-CPPTEF[Pen]-NH2; linker 1-7 via mXylylene) | > 1000 |  | 100 to 794 | 
CCCCCC(=O)N[C@H]1CSCc2cccc(c2)CSC[C@@H](C(N)=O)NC(=O)[C@H](Cc2ccccc2)NC(=O)[C@H](CCC(=O)O)NC(=O)[C@H]([C@@H](C)O)NC(=O)[C@@H]2C[C@@H](c3ccccc3)CN2C(=O)[C@@H]2CCCN2C1=O [3BP-3353, Hex-[Cys(3MeBn)-Pro-Eay-Thr-Glu-Phe-Cys]-NH2] (Hexanoyl-CP[Pro(trans-4-Ph)]TEFC-NH2; linker 1-7 via mXylylene) | > 1000 |  | 100 to 794 | 
CCCCCC(=O)N[C@H]1CSCc2cc(CSCCNC(=O)CCP(=O)(O)CN3CCN(CP(=O)(O)CO)CCN(CP(=O)(O)CO)CC3)cc(c2)CSC[C@@H](C(=O)O)NC(=O)[C@H](Cc2ccccc2)NC(=O)[C@H](CCC(=O)O)NC(=O)[C@H]([C@@H](C)O)NC(=O)[C@@H]2CCCN2C(=O)[C@@H]2CCCN2C1=O [3BP-4816, Hex-[C(tMeBn(GaNOPO-AET))-PPTEFC]-OH] (Hexanoyl-CPPTEFC-OH; linker 1-7 via X7) |  |  |  | pIC50 Category (FACS) ([1]; FAP-expressing human WI-38 fibroblasts): B (category B for pIC50 values between 7.1 and 8.0); pIC50 Category (activity) ([2]; Recombinant human FAP): B (category B for pIC50 values between 7.1 and 8.0)
CCCCCC(=O)N[C@H]1CSCc2cccc(c2)CSC[C@@H](C(N)=O)NC(=O)[C@H](Cc2ccccc2)NC(=O)[C@H](CCC(=O)O)NC(=O)[C@H]([C@@H](C)O)NC(=O)[C@@H]2CCCN2C(=O)CN(C)C1=O [3BP-3347, Hex-[Cys(3MeBn)-Nmg-Pro-Thr-Glu-Phe-Cys]-NH2] (Hexanoyl-C[Sar]PTEFC-NH2; linker 1-7 via mXylylene) | 100 to 794 |  | 10 to 79.4 | 
Hex-[Cys(3MeBn)-Pro-Pro-Thr-Glu-Phe-Cys]-Asp-Omp-Arg-NH2 [3BP-3302] |  |  |  | pIC50 Category (FACS) ([1]; competition with 3 nM Cy5-labeled compound, WI-38 fibroblasts, 4° C., 1 hour): A (pIC50 category A stands for pIC50 values >8.0); pIC50 Category (activity) ([2]; FRET-based FAP protease activity assay, recombinant human FAP, 37° C.): A (pIC50 category A stands for pIC50 values >8.0)
CCCCCC(=O)N[C@H]1CSCc2cccc(c2)CSC[C@@H](C(N)=O)NC(=O)[C@H](Cc2ccccc2C(F)(F)F)NC(=O)[C@H](CCC(N)=O)NC(=O)[C@H]([C@@H](C)O)NC(=O)[C@@H]2CCCN2C(=O)[C@@H]2CCCN2C1=O [3BP-3409, Hex-[Cys(3MeBn)-Pro-Pro-Thr-Gln-Otf-Cys]-NH2] | 10 to 79.4 |  | < 10 | 
CCCCCC(=O)N[C@H]1CSCc2cccc(c2)CSC[C@@H](C(N)=O)NC(=O)[C@H](Cc2ccccc2)NC(=O)[C@H](CCC(=O)O)NC(=O)[C@H]([C@@H](C)O)NC(=O)[C@@H]2C[C@H](N)CN2C(=O)[C@@H]2CCCN2C1=O [3BP-3367, Hex-[Cys(3MeBn)-Pro-Tap-Thr-Glu-Phe-Cys]-NH2] (Hexanoyl-CP[Pro(4S-NH2)]TEFC-NH2; linker 1-7 via mXylylene) | > 1000 |  | 100 to 794 | 
